Reference: patent US10265286B2, “Sequelae of cardiopulmonary bypass-induced pulmonary injury” (Vanderbilt University, priority 2016, dated 2019)

Tested on: human vascular endothelial cells
Experiment: Nitric oxide production by cultured human vascular endothelial cells (FIG. 23)
Assay type: cell-based
Experimental: These agents were administered to cultured human vascular endothelial cells stimulated with acetylcholine. Measurement of nitric oxide was through a Seiver's system of nitrate/nitrites.

N=C(N)NCCC[C@H](N)C(=O)O [arginine] was tested, and the NO production (applied directly to endothelial cell, very high concentrations (10 mM)) was “little sign of increased NO production” and the “production of nitric oxide” value (cells stimulated with acetylcholine, nitrate/nitrites by Seiver's system) was “no effect on the production of nitric oxide”.
